# Laboratory results: PubChem BioAssay AID588428 (NMMLSC, 2011)
# Active and inactive are the calls of the source.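 The calls were made as follows: active = compounds whose thermal stabilization response is above zero, meaning they raise the protein's melting point; inactive = the rest.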
# Molecular target: Beta-adrenergic receptor kinase 1 (Homo sapiens) (UniProt P25098)
# Experiment: direct GRK2 binders by thermal shift, orthogonal assay for GRK2 aptamer-displacement inhibitor project, biophysical, Thermofluor, set 1 (AID 588428)
# Details: purified GRK2 thermal shift, ANS fluorescence; at 200 µM; stronger effect = higher value
# Chain of Beta-adrenergic receptor kinase 1 (Homo sapiens) (P25098 whole entry, looked up): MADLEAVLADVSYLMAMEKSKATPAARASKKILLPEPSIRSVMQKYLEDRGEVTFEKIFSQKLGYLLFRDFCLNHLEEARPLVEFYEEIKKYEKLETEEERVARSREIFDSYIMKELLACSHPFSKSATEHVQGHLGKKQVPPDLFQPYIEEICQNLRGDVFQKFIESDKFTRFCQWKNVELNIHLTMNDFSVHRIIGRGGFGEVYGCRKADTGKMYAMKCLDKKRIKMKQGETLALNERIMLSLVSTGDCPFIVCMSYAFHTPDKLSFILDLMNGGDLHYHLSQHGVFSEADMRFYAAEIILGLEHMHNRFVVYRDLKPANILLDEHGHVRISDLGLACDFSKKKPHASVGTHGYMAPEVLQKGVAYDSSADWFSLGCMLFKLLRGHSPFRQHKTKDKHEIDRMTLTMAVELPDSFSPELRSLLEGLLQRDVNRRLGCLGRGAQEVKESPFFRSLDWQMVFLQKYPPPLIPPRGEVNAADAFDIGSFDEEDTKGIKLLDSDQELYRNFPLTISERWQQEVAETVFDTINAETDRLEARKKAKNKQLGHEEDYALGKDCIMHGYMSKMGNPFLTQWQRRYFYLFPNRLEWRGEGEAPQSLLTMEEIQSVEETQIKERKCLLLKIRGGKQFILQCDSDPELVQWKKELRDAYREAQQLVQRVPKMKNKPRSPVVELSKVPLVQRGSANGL
row,SMILES,thermal stabilization response
1,Cc1ccccc1NC(=O)CCS(=O)(=O)c1ccc(Br)cc1,108%
2,Cc1cc(=O)[nH]c(SCC(=O)NCc2ccco2)n1,-79.1% (inactive)
3,CCc1ccccc1NC(=O)CCS(=O)(=O)c1ccc(Br)cc1,-35.6% (inactive)
4,O=C(O)C1CC(=O)N(c2ccc3c(c2)OCCO3)C1 (stereo not given),-152% (inactive)
5,Cc1cc2ccccc2n1CCNC(=O)c1cccs1,-176% (inactive)
6,O=C(CCS(=O)(=O)c1ccc(Br)cc1)NCCc1ccc(Cl)cc1,-53% (inactive)
7,CCOc1ccc(CCNC(=O)CCS(=O)(=O)c2ccc(Br)cc2)cc1OCC,-112% (inactive)
8,Cc1cccc(N2CCN(C(=O)CCS(=O)(=O)c3ccc(Br)cc3)CC2C)c1 (stereo not given),-5.78% (inactive)
9,O=C(CCS(=O)(=O)c1ccc(Br)cc1)Nc1cc(F)ccc1F,-75% (inactive)
10,COc1ccc(CNC(=O)CCS(=O)(=O)c2ccc(Br)cc2)cc1,-114% (inactive)
